Reference: ChEMBL document CHEMBL1152098, “A new rearranged cholestane glycoside from ornithogalum saundersiae bulbs exhibiting potent cytostatic activities on leukemia HL-60 and molt-4 cells” (Bioorg Med Chem Lett, 1996)

Experiments:
MOLT-4 = experiment: Compound was tested for its anticancer activity against human T-lymphocytic leukemia MOLT-4 cells.; format: functional, cell-based
HL-60 = experiment: Compound was tested for its anticancer activity against HL-60 cells.; format: functional, cell-based; conditions: Homo sapiens

Row | IC50 (MOLT-4) | IC50 (HL-60) | SMILES
1 | 48 nM |  | CN(Cc1cnc2nc(N)nc(N)c2n1)c1ccc(C(=O)N[C@@H](CCC(=O)O)C(=O)O)cc1 [METHOTREXATE]
2 | 38 nM |  | COc1cc([C@@H]2c3cc4c(cc3[C@@H](O[C@@H]3O[C@@H]5CO[C@@H](C)O[C@H]5[C@H](O)[C@H]3O)[C@H]3COC(=O)[C@H]23)OCO4)cc(OC)c1O [ETOPOSIDE]
3 | 35 nM |  | COc1cccc2c1C(=O)c1c(O)c3c(c(O)c1C2=O)C[C@@](O)(C(=O)CO)C[C@@H]3O[C@H]1C[C@H](N)[C@H](O)[C@H](C)O1 [DOXORUBICIN]
4 | 3.2 nM | 9.2 nM | COc1ccc(C(=O)O[C@@H]2[C@H](O)[C@@H](O)[C@H](O[C@@H]3[C@H](O[C@H]4CC[C@@]5(C)C(=CC[C@H]6[C@@H]7C[C@@H]8O[C@@H](O)[C@H](C=C(C)C)[C@]9(C)O[C@@H](OC)C7(CC[C@@H]65)[C@H]89)C4)O[C@@H](CO)[C@@H](O)[C@@H]3O)O[C@H]2C)cc1 (stereo not given in full)
